Assays:
Assay type in all cases: cell-based
adenine binding GPCR = target: T1, adenine binding GPCR (Rattus norvegicus, UniProt Q7TN49); test: FLIPR Ca2+ transient assay, antagonism of 30 nM adenine challenge; conditions: 15 minutes incubation with compound (30 μM to 30 pM), then challenge with 30 nM adenine
T1 construct: The full length reading frame was inserted into the mammalian expression vector pcDNA3; expressed in transfected cells; host or cells: HEK293 cells stably transfected with pLEC/Gqi or pLEC/Gqo
T1 sequence (Q7TN49 1-304): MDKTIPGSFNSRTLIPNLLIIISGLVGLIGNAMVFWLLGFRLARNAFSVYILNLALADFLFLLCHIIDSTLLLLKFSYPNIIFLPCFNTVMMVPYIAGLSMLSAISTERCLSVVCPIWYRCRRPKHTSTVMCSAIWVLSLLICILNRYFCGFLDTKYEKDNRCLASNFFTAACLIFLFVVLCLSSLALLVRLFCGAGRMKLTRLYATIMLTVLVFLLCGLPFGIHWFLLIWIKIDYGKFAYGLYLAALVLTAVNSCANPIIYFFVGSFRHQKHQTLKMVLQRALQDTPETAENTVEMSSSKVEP
Excerpt: (§1) The full length reading frame was inserted into the mammalian expression vector pcDNA3 (Invitrogen, Carlsbad, Calif., U.S.A.) and the resulting expression construct was transiently transfected with the FuGENE 6 reagent (Roche Molecular Biochemicals, Mannheim, Germany) into HEK293 cells stably transfected (E. Bender, unpublished) with pLEC/Gqi or pLEC/Gqo (Molecular Devices, Sunnyvale, Calif., U.S.A.). The cells were loaded with Fluo-4 (Molecular Probes, Eugene, Oreg., U.S.A.) according to the recommendations of the supplier.
After a 15 minutes incubation at room temperature, the same cells were challenged with 30 nM adenine, to detect antagonistic properties of molecules added in the first round of superfusion.

rat adenine binding GPCR = target: T2, rat adenine binding GPCR (Rattus norvegicus, UniProt Q7TN49); test: FLIPR Ca2+ transient assay, agonism, HEK293/Gq chimera cells transiently transfected with rat adenine binding GPCR/pcDNA3; set-up: The full length reading frame was inserted into the mammalian expression vector pcDNA3; expressed in transfected cells; host or cells: HEK293 cells stably transfected with pLEC/Gqi or pLEC/Gqo
T2 sequence (Q7TN49 1-304): T1 sequence (Q7TN49 1-304)
Excerpt: This assay is based around an instrument called a FLuorescence Imaging Plate Reader ((FLIPR®), Molecular Devices Corporation). In its most common configuration, it excites and measures fluorescence emitted by fluorescein-based dyes. It uses an argon-ion laser to produce high power excitation at 488 nm of a fluorophore, a system of optics to rapidly scan the over the bottom of a 96-/384-well plate and a sensitive, cooled CCD camera to capture the emitted fluorescence. It also contains a 96-/384-well pipetting head allowing the instrument to deliver solutions of test agents into the wells of a 96-/384-well plate. The FLIPR assay is designed to measure fluorescence signals from populations of cells before, during and after addition of compounds, in real time, from all 96-/384-wells simultaneously. […] As described below, calcium transients in cells transfected with adenine binding GPCR were measured using the FLIPR assay in order to measure activation of the receptors by various substrates in order to determine the natural ligand of the receptor.
as §1, with “supplier. […]” for “supplier.”
Using the FLIPR assay as above, calcium transients were measured in both sets of cells with the transients attributable to the novel GPCR measured as the difference between the two transients. Results are illustrated in FIG. 4. […]

wild type CHO cells = test: cAMP measurements on wild type CHO cells; conditions: wild type CHO cells
Description: For permanently transfected CHO cells, cAMP measurements were performed using the indirect RIA kit from NEN (Belgium).
a) Methods: Two days before the experiment the cells were seeded out in a 96 well plate at a density required for approximately 90% confluence at the day of the experiment. After removal of the growth medium, the cells were washed twice with a controlled salt solution (CSS) containing 25 mM Tris-HCl, pH 7.4, 120 mM NaCl, 5.4 mM KCl, 0.8 mM MgCl2, 1.8 mM CaCl2, 15 mM glucose and 15 mg/l phenol red, with an addition of a phosphodiesterase inhibitor IBMX (3-isobutyl-1-methylxanthine) in a concentration of 1 mM and […]. Basal cAMP levels were determined in CSS containing these additives and maximally stimulated cAMP levels were determined in the presence of 50 μM forskolin. For testing agonistic activity, the compounds were incubated with the cells for 20 minutes at 37° C. The reaction was stopped by addition of ice cold HClO4 (1N) and stored at −20° C. After thawing the mixtures were neutralized with an equivalent amount of phosphate buffered KOH, left at 4° C. during 30 minutes to allow the salts to precipitate and centrifuged at 2,000 RPM for 5 minutes at 4° C.
For the quantitative determination of the cAMP levels, a 96-well Flashplate radioimmunoassay kit from NEN was used, according to the protocol of the supplier. The sigmoid concentration response curves (duplicate points) were analyzed using the GraphPad Prism program.

SMILES | antagonistic effect (adenine binding GPCR) | agonism of nucleoside and nucleotide derivatives of adenine (rat adenine binding GPCR; at high concentrations (>3.3 μM)) | cAMP response (wild type CHO cells) | calcium transients (agonistic activity) (rat adenine binding GPCR; HEK293/Gaqo cells, 3.3 nM-33 μM, difference to empty-vector cells)
Nc1ncnc2c1ncn2[C@@H]1O[C@H](COP(=O)(O)O)[C@@H](O)[C@H]1O [AMP] | did not elicit antagonistic effects | weak partial agonism |  | 
Nc1ncnc2nc[nH]c12 [Adenine, adenine] |  |  | did not show any response | dose responsive calcium transient
